This data set in a line: Furfural and 5-hydroxymethylfurfural in headspace of heated solutions. The format is physicochemical. Conditions: solutions in water. On the procedure: The solutions were rapidly heated to set temperatures and held at temperature for 5 min. After 5 min, the samples were rapidly cooled. […] (FIG. 18). The data is also plotted in FIG. 18 until 180° C.

As to `OC[C@H]1O[C@@](CO)(O[C@H]2O[C@H](CO)[C@@H](O)[C@H](O)[C@H]2O)[C@@H](O)[C@@H]1O` [Sucrose], the “temperature at which HMF concentration increased” value turned out to be 180 °C.

(Values after patent US20240114940A1, “SACCHARIDE COMPOSITIONS HAVING SUCROSE-LIKE CHARACTERISTICS AND RELATED METHODS” (priority 2021, published 2024).)
